# Where “and” joins values, the source holds several entries; their conditions need not be identical. Identical values can stand only once. Like-named read-outs stand apart in the source and are kept apart here.
# Legend:
# rat footpad = assay: Rat footpad (paw-lick) pain test; assay type: in vivo, Male Sprague Dawley rats; conditions: for Mean time pain response, 0-10 min. / Mean time pain response, 10-20 min.: 8 rats per group; for Pain response in the rat footpad model (result in words): Examples 1-7 and 10, footpad injection 0.1 or 0.2 ml; for Pain in rat footpad model, survey of detergents (result in words): Example 9, injected at concentrations above the CMC for the detergent
# Text: An animal model, the rat paw-lick (footpad) model, which has previously been employed for detection of pain associated with the injection of antibiotics, was utilized (Celozzi et al. J. Pharmacol. Methods, 1980, 4:[…]; Comerski et al., Fundamental and Appl. Toxicology, 1986, 6:335-338). This model monitors the amount of time the rats spend lifting, licking, and biting the injected paw.
# The “rat footpad pain” or “rat paw-lick” test or model as used herein refers to a test or model used to determine the pain induced by a specific formulation upon injection. The test consists of uniformly injecting into the footpad of rats of the same species and approximately the same weights compositions to be assessed as pain causing agents along with compositions known to cause pain at the injection site, as well as compositions known not to cause pain at the injection site. A statistically significant number of animals are to be used for each test and control formulation. After the injection, the animal is placed in a cage with mirrors and then observed by a technician (preferably blinded as to the identity of the immunogenic composition) for 20 to 30 minutes for flinching, lifting, licking, or biting of the injected paw. The amount of time spent on these pain response behaviors are recorded using a stopwatch and summed for 10 minute periods.
# The phrase “less painful” as used herein refers to an alteration in the composition that leads to a reduction in the length of time or intensity, or both, of a pain response compared to that of the non-altered composition as measured by the rat footpad pain test. The phrase “50% reduction in pain” as used herein refers to a 50% reduction in the amount of time spent on pain responses as measured by the rat footpad pain test when comparing altered and unaltered immunogenic compositions administered in equal injection volumes by the same means and observed for the same length of time. The number of animals in each group is a statistically significant number. Observation of the different injection groups is preferably done by the same technician and who is blinded as to the identification of the compositions.
# Rat footpad pain testing. The immunogenic composition samples were brought to room temperature prior to being administered to the animals. The animals were injected by a technician who was not involved in the monitoring of pain responses. Male Sprague Dawley rats (Crl:CD®(SD)IGS BR, 50-100 g at arrival) from Charles River Laboratories Inc. (Kingston, N.Y.) were used for all studies. The rats were acclimated at the research facility for approximately one week prior to initiation of a study, at which point they weighed 100-150 g. The paw to be injected was examined prior to injection to verify absence of any injury. The animal was then restrained in the technician's arm such that the hind legs extended forward. The right rear leg was grasped just above the hock joint and pressure was exerted to hold the paw straight out, with plantar (sole) facing upwards. Using a new 23 gauge needle for each animal, the operator inserted the bevel side up in the center of paw, parallel to the surface of the paw, until the needle was in the center of the pad. The material was then injected and the needle left in place for 3-5 seconds prior to withdrawal, to minimize leakage from the injection site. […]
# The animal was then placed in a cage with 3 mirrors (adjoining sides and floor) and observed by a different technician (blinded as to the identity of the immunogenic composition) for 30 minutes for flinching, lifting, licking, or biting of the injected paw. The length of time spent on these pain response behaviors was recorded using a stopwatch and summed for 10 minute periods. […]
# Statistical Analysis. Results were analyzed using an ANOVA method adjusting for multiple comparisons that compared each treatment group with control group who received buffer alone (either PBS or TBS). […]
# [1] = known critical micelle concentrations, cited from earlier work
# [2] = Example 1 (Table 1), 0.1 ml footpad injection, 6 rats per group
# [3] = Example 4 (Table 7), 0.2 ml injection (formalin 0.1 ml), 10 rats per group
# [4] = Example 6 (Table 11), 0.2 ml injection (formalin 0.1 ml), 10 rats per group
# [5] = Example 7 (Table 13), 0.2 ml injection (formalin 0.1 ml), 10 rats per group
# [6] = Example 9 (Table 15), concentration 5%, 100 μl
# [7] = Example 9 (Table 16), concentration 5%, 100 μl
# [8] = Example 9 (Table 17), concentration 5%, 100 μl
# [9] = Example 9 (Table 16), concentration 0.9%, 200 μl
# [10] = Example 9 (Table 17), concentration 0.8%, 200 μl
# [11] = Example 9 (Table 17), concentration 7 mM, 200 μl
# [12] = Example 9 (Table 16), concentration 1%, 200 μl
# [13] = Example 9 (Table 16), concentration 0.025%, 200 μl
# [14] = Example 9 (Table 15), detergent concentration 0.05%, 200 μl
# [15] = Example 9 (Table 15), detergent concentration 0.05%, 200 μl, listed as Zw3-14
# [16] = Example 9 (Table 16), concentration 0.02%, 200 μl
# [17] = Example 9 (Table 17), concentration 0.5%, 200 μl
molecule,measurement,setting,value
C=O [5% Formalin],"Time pain response, Mean, 0-10 min.",rat footpad; [2],274 s
same,"Time pain response, Mean, 10-20 min.",rat footpad; [2],312 sec
same,"Time pain response, Mean, 20-30 min.",rat footpad; [2],450 s
same,"Time pain response, Median, 10-20 min.",rat footpad; [2],292 sec
same,"Time pain response, Median, 20-30 min.",rat footpad; [2],448 s
same,"Time pain response, Median, 0-10 min.","rat footpad; Example 1 (Table 1), 0.1 ml footpad injection, 6 rats per group, PBS not pyrogen-free",311 s
same,"0-10 min. time pain response, Mean",rat footpad; [3],178 s
same,"0-10 min. time pain response, Median",rat footpad; [3],162 s
same,"10-20 min. time pain response, Mean",rat footpad; [3],174 sec
same,"10-20 min. time pain response, Median",rat footpad; [3],173 sec
same,"0-10 min. time pain response, Mean",rat footpad; [4],225 s
same,"0-10 min. time pain response, Median",rat footpad; [4],219 s
same,"10-20 min. time pain response, Mean",rat footpad; [4],167 sec
same,"10-20 min. time pain response, Median",rat footpad; [4],181 sec
same,"0-10 min time pain response, Mean",rat footpad; [5],252 s
same,"0-10 min time pain response, Median",rat footpad; [5],233 s
same,"10-20 min. time pain response, Mean",rat footpad; [5],435 sec
same,"10-20 min. time pain response, Median",rat footpad; [5],448 sec
same,"Mean time pain response, 0-10 min.",rat footpad; [6],161.3 s
same,"Mean time pain response, 10-20 min.",rat footpad; [6],313.5 sec.
same,"Mean time pain response, 0-10 min.",rat footpad; [7],114 s
same,"Mean time pain response, 10-20 min.",rat footpad; [7],218 sec.
same,"Mean time pain response, 0-10 min.",rat footpad; [8],272.5 s
same,"Mean time pain response, 10-20 min.",rat footpad; [8],280.4 sec.
same,Pain response in the rat footpad model (result in words),rat footpad,induced the highest pain response among the compositions tested
"C[C@H](CCC(=O)N(CCCNC(=O)[C@H](O)[C@@H](O)[C@H](O)[C@H](O)CO)CCCNC(=O)[C@H](O)[C@@H](O)[C@H](O)[C@H](O)CO)[C@H]1CC[C@H]2[C@@H]3[C@H](O)C[C@@H]4C[C@H](O)CC[C@]4(C)[C@H]3C[C@H](O)[C@]12C [BigCHAP ®, N,N-bis(3-D-glucon-amidopropyl)cholamide]",CMC,[1],3 to 4 mM
same,CMC (%),[1],0.3%
"C[C@H](CCC(=O)NCCC[N+](C)(C)CCCS(=O)(=O)[O-])[C@H]1CC[C@H]2[C@@H]3[C@H](O)C[C@@H]4C[C@H](O)CC[C@]4(C)[C@H]3C[C@H](O)[C@]12C [CHAPS ®, 3-[(3-Cholamidopropyl)dimethylammonio]-1-propanesulfonate]","Mean time pain response, 0-10 min.",rat footpad; [9],351 s
same,"Mean time pain response, 10-20 min.",rat footpad; [9],114 sec.
same,"Pain in rat footpad model, survey of detergents (result in words)",rat footpad,caused significant pain
same,Pain response in the rat footpad model (result in words),rat footpad,cause considerable pain
same,CMC,[1],6 to 10 mM
same,CMC (%),[1],0.18-0.62%
"CCCCCCCCCCCCO[C@@H]1O[C@H](CO)[C@@H](O[C@H]2O[C@H](CO)[C@@H](O)[C@H](O)[C@H]2O)[C@H](O)[C@H]1O [Dodecyl maltoside, n-Dodecyl-beta-D-maltoside]","Mean time pain response, 0-10 min.",rat footpad; [10],298.0 s
same,"Mean time pain response, 10-20 min.",rat footpad; [10],141.0 sec.
same,"Pain in rat footpad model, survey of detergents (result in words)",rat footpad,induced pain
"CCCCCCCCCC(=O)N(C)C[C@H](O)[C@@H](O)[C@H](O)[C@H](O)CO [Mega10, Decanoyl-N-methylglucamide]","Mean time pain response, 0-10 min.",rat footpad; [11],28.8 s
same,"Mean time pain response, 10-20 min.",rat footpad; [11],31.0 sec.
"CCCCCCCCO[C@@H]1O[C@H](CO)[C@@H](O)[C@H](O)[C@H]1O [Octyl glucoside, n-Octyl-b-D-glucopyranoside]","Mean time pain response, 0-10 min.",rat footpad; [12],48 s
same,"Mean time pain response, 10-20 min.",rat footpad; [12],108 sec.
same,"Pain in rat footpad model, survey of detergents (result in words)",rat footpad,induced pain
same,Pain response in the rat footpad model (result in words),rat footpad,cause considerable pain
"CCCCCCCC/C=C\CCCCCCCC(=O)OCCOCC(OCCO)C1OCC(OCCO)C1OCCO (stereo not shown) [TWEEN 80, Polyoxyethylene (20) sorbitan monooleate]","Mean time pain response, 0-10 min.",rat footpad; [13],3 s
same,"Mean time pain response, 10-20 min.",rat footpad; [13],6 sec.
same,"Pain in rat footpad model, survey of detergents (result in words)",rat footpad,do not cause significant pain
same,CMC,[1],0.012 mM
same,CMC (%),[1],0.0016%
"CCCCCCCC[N+](C)(C)CCCS(=O)(=O)[O-] [Zwittergent ® 3-8, n-Octyl-N,N-dimethyl-3-ammonio-1-propanesulfonate]",CMC,[1],330 mM
same,CMC (%),[1],4.6-10.9%
"CCCCCCCCCC[N+](C)(C)CCCS(=O)(=O)[O-] [Zwittergent ® 3-10, n-Decyl-N,N-dimethyl-3-ammonio-1-propanesulfonate]","Mean time pain response, 0-10 min.",rat footpad; [10],300.6 s
same,"Mean time pain response, 10-20 min.",rat footpad; [10],260.5 sec.
same,"Pain in rat footpad model, survey of detergents (result in words)",rat footpad,caused significant pain
same,CMC,[1],25 to 40 mM
same,CMC (%),[1],0.43-1.23%
"CCCCCCCCCCCC[N+](C)(C)CCCS(=O)(=O)[O-] [Zwittergent ® 3-12, n-Dodecyl-N,N-dimethyl-3-ammonio-1-propanesulfonate]","Mean time pain response, 0-10 min.",rat footpad; [14],295.3 s
same,"Mean time pain response, 10-20 min.",rat footpad; [14],139.8 sec.
same,"Pain in rat footpad model, survey of detergents (result in words)",rat footpad,caused significant pain
same,Pain response in the rat footpad model (result in words),rat footpad,responsible for the pain on injection
same,CMC,[1],2 to 4 mM
same,CMC (%),[1],0.047-0.13%
"CCCCCCCCCCCCCC[N+](C)(C)CCCS(=O)(=O)[O-] [Zwittergent ® 3-14, n-Tetradecyl-N,N-dimethyl-3-ammonio-1-propanesulfonate]","Mean time pain response, 0-10 min.",rat footpad; [15],44.7 s and 37.8 s
same,"Mean time pain response, 10-20 min.",rat footpad; [15],33.6 sec. and 30.1 sec.
same,"Pain in rat footpad model, survey of detergents (result in words)",rat footpad,caused significant pain
same,Pain response in the rat footpad model (result in words),rat footpad,responsible for the pain on injection
same,CMC,[1],0.1 to 0.4 mM
same,CMC (%),[1],0.004-0.015%
same,CMC (%),[1]; listed as Zw 3-14,0.004%-0.015%
Polyoxyethylene (35) Lauryl Ether [BRIJ],"Mean time pain response, 0-10 min.",rat footpad; [16],1 s
same,"Mean time pain response, 10-20 min.",rat footpad; [16],0 sec.
same,"Pain in rat footpad model, survey of detergents (result in words)",rat footpad,do not cause significant pain
same,CMC,[1],0.09 mM
same,CMC (%),[1],0.011%
Sodium deoxycholate,"Mean time pain response, 0-10 min.",rat footpad; [17],307.0 s
same,"Mean time pain response, 10-20 min.",rat footpad; [17],121.9 sec.
"alpha-[4-(1,1,3,3-tetramethylbutyl)phenyl]-omega-hydroxypoly(oxy-1,2-ethanediyl) [TRITON ® X-100]","Mean time pain response, 0-10 min.",rat footpad; [14],8.5 s
same,"Mean time pain response, 10-20 min.",rat footpad; [14],11.2 sec.
same,"Pain in rat footpad model, survey of detergents (result in words)",rat footpad,do not cause significant pain
same,CMC,[1],0.2 to 0.9 mM
same,CMC (%),[1],0.013-0.056%
